In data set [1] the test system is MCF7. The data set is described as follows: cells. The following applies: Homo sapiens, MCF7, 144 h.
The subject of data set [2] is HCT-116. The data set is described as follows: Inhibition of colony formation in human HCT-116 cells preincubated for 1 hr followed by exposure to 2 Gy gamma irradiation and measured after 1 week by crystal violet staining based […] assay. The class given is functional, cell-based. The following applies: HCT-116, light or radiation study.
The subject of data set [3] is MCF7. The data set is described as follows: Synergistic antiproliferative activity against human MCF7 cells assessed as fold increase in etoposide IC50 at 200 nM measured after 6 days by MTT assay. The class given is functional. The following applies: time 6 day. (In general: Formazan colour is commonly taken as a measure of viable cells.)
Data set [4] in a line: Metabolic stability in human liver microsomes assessed as half life at 1 uM in presence of NADPH-regenerating system by LC-MS/MS analysis. It counts as ADME, Microsome. (In general: Liver microsomes are vesicles of endoplasmic reticulum, rich in cytochrome P450 enzymes.)
Data set [5] concerns SW-620. The data set is described as follows: Antiproliferative activity against human SW620 cells assessed as reduction in cell viability incubated for 6 days by MTT assay. To be noted: SW-620, 144 h. It counts as functional, cell-based.
Data set [6] deals with MCF7. The data set is described as follows: Antiproliferative activity against human MCF7 cells assessed as reduction in cell viability incubated for 6 days by MTT assay. It counts as functional, cell-based. The following applies: MCF7, 144 h.
Data set [7] deals with T1, Serine-protein kinase ATM (Homo sapiens, UniProt Q13315). The data set is described as follows: Inhibition of ATM (unknown origin) preincubated with compound for 30 mins followed by substrate addition and measured after 2 hrs by HTRF method.
T1 sequence (Q13315 whole entry): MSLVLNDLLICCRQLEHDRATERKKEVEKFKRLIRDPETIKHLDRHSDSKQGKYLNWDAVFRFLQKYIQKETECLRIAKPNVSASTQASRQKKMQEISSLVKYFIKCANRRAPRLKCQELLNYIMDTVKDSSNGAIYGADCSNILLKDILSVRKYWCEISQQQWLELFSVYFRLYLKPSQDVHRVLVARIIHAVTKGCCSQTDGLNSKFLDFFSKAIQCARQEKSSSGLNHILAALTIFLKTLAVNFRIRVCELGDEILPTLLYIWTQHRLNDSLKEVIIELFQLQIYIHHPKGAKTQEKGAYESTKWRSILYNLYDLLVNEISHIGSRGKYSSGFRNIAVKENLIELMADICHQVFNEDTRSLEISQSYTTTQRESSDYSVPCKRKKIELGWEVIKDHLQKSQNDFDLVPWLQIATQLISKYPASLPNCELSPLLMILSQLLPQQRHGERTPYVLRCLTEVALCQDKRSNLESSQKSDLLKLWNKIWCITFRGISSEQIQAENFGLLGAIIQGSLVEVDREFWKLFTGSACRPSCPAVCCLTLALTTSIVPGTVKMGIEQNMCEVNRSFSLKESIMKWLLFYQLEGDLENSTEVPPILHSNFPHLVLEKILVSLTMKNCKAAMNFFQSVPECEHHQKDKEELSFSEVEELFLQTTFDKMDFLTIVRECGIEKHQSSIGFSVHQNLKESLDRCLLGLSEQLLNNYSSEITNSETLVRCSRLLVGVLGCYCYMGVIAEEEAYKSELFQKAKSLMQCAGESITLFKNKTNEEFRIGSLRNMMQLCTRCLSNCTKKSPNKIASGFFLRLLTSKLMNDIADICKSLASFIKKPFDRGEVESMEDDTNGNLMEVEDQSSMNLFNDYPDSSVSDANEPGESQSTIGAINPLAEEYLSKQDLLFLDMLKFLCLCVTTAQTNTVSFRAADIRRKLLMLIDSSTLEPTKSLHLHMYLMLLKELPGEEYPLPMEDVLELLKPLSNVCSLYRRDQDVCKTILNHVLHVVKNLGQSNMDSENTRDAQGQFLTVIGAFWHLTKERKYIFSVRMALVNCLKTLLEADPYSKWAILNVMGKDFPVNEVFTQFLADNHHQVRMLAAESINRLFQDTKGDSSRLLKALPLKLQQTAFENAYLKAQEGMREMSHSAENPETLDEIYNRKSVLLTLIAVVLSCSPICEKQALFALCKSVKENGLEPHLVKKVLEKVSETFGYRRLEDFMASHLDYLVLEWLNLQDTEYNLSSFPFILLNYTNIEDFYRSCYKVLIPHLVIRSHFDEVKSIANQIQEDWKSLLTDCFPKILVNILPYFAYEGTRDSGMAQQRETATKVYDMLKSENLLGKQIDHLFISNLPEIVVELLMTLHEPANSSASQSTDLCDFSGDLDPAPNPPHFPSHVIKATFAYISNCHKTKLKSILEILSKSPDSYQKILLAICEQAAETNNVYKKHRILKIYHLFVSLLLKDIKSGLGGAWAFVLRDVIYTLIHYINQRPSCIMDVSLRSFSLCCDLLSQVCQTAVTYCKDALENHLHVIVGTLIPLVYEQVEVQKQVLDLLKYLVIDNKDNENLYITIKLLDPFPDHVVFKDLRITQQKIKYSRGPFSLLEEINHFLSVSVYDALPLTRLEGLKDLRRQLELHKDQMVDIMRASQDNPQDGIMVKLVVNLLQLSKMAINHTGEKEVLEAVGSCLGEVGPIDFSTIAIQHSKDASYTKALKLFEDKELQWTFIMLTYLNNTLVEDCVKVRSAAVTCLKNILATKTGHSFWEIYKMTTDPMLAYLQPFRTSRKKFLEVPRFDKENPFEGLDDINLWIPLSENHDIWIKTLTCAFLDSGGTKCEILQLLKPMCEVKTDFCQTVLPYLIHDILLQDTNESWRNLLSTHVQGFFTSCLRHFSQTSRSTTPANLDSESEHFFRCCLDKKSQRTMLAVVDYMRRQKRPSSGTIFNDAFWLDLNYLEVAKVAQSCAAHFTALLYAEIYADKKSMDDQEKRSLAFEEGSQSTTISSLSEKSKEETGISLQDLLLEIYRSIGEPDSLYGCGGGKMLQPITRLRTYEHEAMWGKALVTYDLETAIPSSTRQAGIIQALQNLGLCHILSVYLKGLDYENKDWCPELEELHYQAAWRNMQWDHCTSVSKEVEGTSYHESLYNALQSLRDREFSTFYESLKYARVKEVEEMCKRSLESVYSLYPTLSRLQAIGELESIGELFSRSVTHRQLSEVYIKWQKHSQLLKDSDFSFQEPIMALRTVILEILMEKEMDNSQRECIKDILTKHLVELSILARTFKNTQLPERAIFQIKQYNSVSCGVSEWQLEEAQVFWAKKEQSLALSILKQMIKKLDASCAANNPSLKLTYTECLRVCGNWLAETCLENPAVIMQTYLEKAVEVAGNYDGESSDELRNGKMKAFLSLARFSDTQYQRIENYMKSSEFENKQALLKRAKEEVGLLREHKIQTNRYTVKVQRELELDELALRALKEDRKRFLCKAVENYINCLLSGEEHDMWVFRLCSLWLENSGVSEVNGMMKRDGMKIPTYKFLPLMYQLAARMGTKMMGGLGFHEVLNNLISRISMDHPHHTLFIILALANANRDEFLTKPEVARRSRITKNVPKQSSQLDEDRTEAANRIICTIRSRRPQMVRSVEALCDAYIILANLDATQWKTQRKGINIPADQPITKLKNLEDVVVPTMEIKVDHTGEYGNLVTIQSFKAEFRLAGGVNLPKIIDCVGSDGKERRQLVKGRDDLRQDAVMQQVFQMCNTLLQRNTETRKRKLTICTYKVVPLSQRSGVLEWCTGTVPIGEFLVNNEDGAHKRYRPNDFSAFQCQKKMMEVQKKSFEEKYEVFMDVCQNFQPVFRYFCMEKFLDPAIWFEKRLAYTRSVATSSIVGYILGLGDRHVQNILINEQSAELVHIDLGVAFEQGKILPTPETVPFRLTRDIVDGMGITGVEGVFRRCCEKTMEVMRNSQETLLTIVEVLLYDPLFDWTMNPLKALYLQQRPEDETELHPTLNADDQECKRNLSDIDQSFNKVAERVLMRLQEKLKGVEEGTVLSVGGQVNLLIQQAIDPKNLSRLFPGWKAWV
Data set [8] concerns MCF7. The data set is described as follows: Synergistic antiproliferative activity against human MCF7 cells assessed as combination index at […] measured after 6 days in presence irinotecan by MTT assay. To be noted: dose lower 100 µM; time 6 day. The class given is functional.
For data set [9], the system named is HCT-116. The data set is described as follows: Antiproliferative activity against human HCT-116 cells assessed as cell survival at 1 uM incubated for 6 days by MTT assay relative to control. The class given is functional. To be noted: HCT-116, 144 h, time 6 day, read-out: Survival.
Data set [10] deals with MCF7. The data set is described as follows: Synergistic antiproliferative activity against human MCF7 cells assessed as combination index at […] measured after 6 days in presence etoposide by MTT assay. It counts as functional. To be noted: dose lower 100 µM; time 6 day.
In data set [11] the test system is HCT-116. The data set is described as follows: Inhibition of colony formation in human HCT-116 cells at 0.01 uM preincubated for 1 hr followed by exposure to 2 Gy gamma irradiation and measured after 1 week by crystal violet staining based […] assay relative to control. It counts as functional. The following applies: HCT-116, light or radiation study, time 169 hrs.

Data set [12] is described as follows: Metabolic stability in human liver microsomes assessed as clearance at 1 uM in presence of NADPH-regenerating system by LC-MS/MS analysis. It counts as ADME, Microsome.
The subject of data set [13] is HCT-116. The data set is described as follows: Inhibition of colony formation in human HCT-116 cells assessed as assessed as fold change in IC50 in presence of ionizing radiation. It counts as functional.
For data set [14], the system named is MCF7. The data set is described as follows: Synergistic antiproliferative activity against human MCF7 cells assessed as fold increase in irinotecan IC50 at 200 nM measured after 6 days by MTT assay. It counts as functional. The following applies: time 6 day.
In data set [15] the target is Serine/threonine-protein kinase ATR (Homo sapiens, UniProt Q13535). The data set is described as follows: Inhibition of ATR (unknown origin) assessed as remaining activity at 1 uM in presence of [gamma33P-ATP] by radiometric assay.
Data set [16] concerns the target T1, Serine-protein kinase ATM. The data set is described as follows: Inhibition of ATM (unknown origin) assessed as remaining activity at 0.01 uM preincubated with compound for 30 mins followed by substrate addition and measured after 2 hrs by HTRF method relative to control. To be noted: time 2.5 hrs. On the technique in general: Time-resolved FRET reads energy transfer from a long-lived donor to a nearby acceptor.

Structures are written as SMILES.

In general, IC50 refers to the midpoint of a concentration-inhibition curve. `COc1cc([C@@H]2c3cc4c(cc3[C@@H](O[C@@H]3O[C@@H]5CO[C@@H](C)O[C@H]5[C@H](O)[C@H]3O)[C@H]3COC(=O)[C@H]23)OCO4)cc(OC)c1O` [ETOPOSIDE] gave an IC50 in data set [1] of 210 nM.

As usually defined, the half-life is how long it takes for the measured level to halve. As usually defined, the inhibition is the drop in the measured response relative to a control, in per cent. Read a low inhibition as a response near the control. As to `CC(C)NC(=O)N(C)c1cnc2ccc(-c3ccc(OCCCN4CCCC4)nc3)cc2n1`, the IC50 in data set [2] was 1.76 nM; in data set [5], above 9000 nM; in [6], above 9000 nM; in data set [7], 1.75 nM. In addition, the “fold change (FC)” value in [3] was 3; in data set [13] it was 8284; in data set [14] it was 13. Further, the half-life at 1 µM in data set [4] is 267 min. The CI in data set [8] and in [10] was below 1 in each case. In [9], the viability at 1 µM is above 83%. In data set [11], the inhibition at 0.01 µM amounted to 83.8%. For the same molecule, the CLH in data set [12] came to 5.2 mL/min/g.

As to `CC(C)NC(=O)N(C)c1cnc2ccc(-c3ccc(OCCCN(C)C)nc3)cc2n1`, the Activity came to 105% in data set [15] and 14% in data set [16]. For the same molecule, the IC50 in [2] is 8.94 nM; in data set [7], 2 nM. For the same molecule, in [4], the half-life at 1 µM came to 35 min. For the same molecule, in data set [9], the viability at 1 µM is above 83%. In [11], this molecule gave an inhibition at 0.01 µM of 58.4%. Also, the CLH in data set [12] was 40 mL/min/g.

For `CN(C)CCCOc1ccc(-c2ccc3ncc(N(C)C(=O)NC4CCCC4)nc3c2)cn1`, the values for the Activity in data set [15] and in data set [16] were 100% and 2%, respectively. In addition, the half-inhibitory concentration (IC50) stood at 1.56 nM in data set [2] and 1 nM in data set [7]. Besides, the half-life at 1 µM in data set [4] came to 22 min. In addition, the viability at 1 µM in data set [9] is above 83%. For the same molecule, the inhibition at 0.01 µM in data set [11] turned out to be 91.9%. Also, the CLH in [12] worked out at 64 mL/min/g.

As to `CN(C)CCCOc1ccc(-c2ccc3ncc(N(C)C(=O)Nc4ccccc4Cl)nc3c2)cn1`, the values for the Activity in data set [15] and in [16] were 102% and 3%, respectively. Further, the concentration for half-maximal inhibition (IC50) was 4.35 nM in data set [2] and 0.9 nM in [7]. For the same molecule, the half-life at 1 µM in data set [4] came to 33 min. Also, the viability at 1 µM in data set [9] is above 83%. In data set [11], this molecule displayed an inhibition at 0.01 µM of 84.4%. Moreover, the CLH in data set [12] is 43 mL/min/g.

The record behind these values is ChEMBL document CHEMBL5346961, “Discovery and Evaluation of 3-Quinoxalin Urea Derivatives as Potent, Selective, and Orally Available ATM Inhibitors Combined with Chemotherapy for the Treatment of Cancer via Goal-Oriented Molecule Generation and Virtual Screening” (J Med Chem, 2023).
